The text below walks through data of paper PMC3689638, “Cell cycle-dependent activity of the novel dual PI3K-MTORC1/2 inhibitor NVP-BGT226 in acute leukemia” (Molecular Cancer, 2013).

For the test, the system named is Ba/F3 parental and mutant-TK transfectant cell lines. In words: Induction of apoptosis, all tested Ba/F3 cell lines. The format is cell-based, murine. As to conditions: Mus musculus, BaF3; virtually all tested Ba/F3 cell lines; read-out: transfectant-specific IC50s, induction of apoptosis (span over cell lines). The method, then: These findings are in line with our results for the corresponding tested human leukemia cell lines.
Translocation of phosphatidylserine from the inner to the outer leaflet of the plasma membrane as an early indicator of apoptosis was analyzed using an Annexin V-based assay (Immunotech, Marseilles, France) and a FACScalibur® flow cytometer loaded with CellQuest® analysis software (BD, Heidelberg, Germany).

`COc1ccc(-c2ccc3ncc4c(c3c2)n(-c2ccc(N3CCNCC3)c(C(F)(F)F)c2)c(=O)n4C)cn1` [NVP-BGT226]: the IC50 is 120 to 1800 nM.
